According to article PMC10897598, “TwinF interface inhibitor FP802 stops loss of motor neurons and mitigates disease progression in a mouse model of ALS” (Cell Reports Medicine, 2024):

Legend:
[1] = Hematology of treated SOD1G93A mice; type: in vivo, mouse; conditions: 40 mg/kg/day s.c. pump
Method: All hematology and most serum clinical chemistry analyses were carried out by IDEXX Laboratories, Germany. The neurofilament light chain levels in serum were determined by PBL Assay Science (USA) using the Simoa NF-light Advantage Kit (Quanterix Cat #103186).
Vehicle FP802 n Significance 95% Interval
Anisocytosis (%) 0 0 4 n.a. -
Band neutrophils 0 0 4 n.a. -
Basophils (%) 0 0 4 n.a. -
Atypical cells 0 0 4 n.a. -
Table S2. Hematology of SOD1G93A mice treated with vehicle or FP802.
FP802 delivered with a subcutaneously implanted ALZET osmotic pump at 40 mg/kg/day for 4 weeks starting at
References were from Charles
River Laboratories datasheets for C57BL6 mice. Related to Figure 2.

NMDAR/TRPM4 complex = molecular target: T1, NMDAR/TRPM4 complex (Mus musculus, UniProt Q7TN37); assay: Co-immunoprecipitation of the NMDAR/TRPM4 complex from lumbar spinal cord lysates of treated animals; type: in vivo; conditions: two weeks after osmotic pump implantation
T1 construct: Lumbar spinal cords were dissected from mice two weeks after ALZET osmotic pump (1002) implantation; from tissue; host or cells: lumbar spinal cord of wild-type mice treated in vivo with vehicle or FP802
Method: A total of 83 heterozygous SOD1^G93A and 22 wild-type littermates were employed in this study. Eight WT and 12 SOD1^G93A mice were used to determine the EAAT2 protein levels in the spinal cord. Three SOD1^G93A mice were treated with FP802 to explore the concentration of FP802 in the spinal cord. Four SOD1^G93A mice were used to test the tolerability of mice to subcutaneously ALZET osmotic pump (type 2004) implantation with FP802 that allowed a continuous and constant supply of compound to the animals for 4 weeks. Eight wild-type mice were used to explore the disruption of the NMDAR/TRPM4 death signaling complex by FP802. In total, 52 SOD1^G93A mice were treated with FP802 or vehicle via ALZET osmotic pump from week 15 for 30 days (four cohorts). It was not possible to extend the treatment beyond the 30 days application period because the poor health state of many animals was incompatible with the anesthesia required for surgical implantation of a second osmotic pump. The number of animals used for experiments was specified in the figure legends. […]
All procedures for immunoprecipitation were carried out at 4°C as described before.[20] […] Protein concentrations of the supernatants were measured using the Pierce BCA Protein Assay Kit. […]

T1 sequence (Q7TN37 whole entry, one chain of several): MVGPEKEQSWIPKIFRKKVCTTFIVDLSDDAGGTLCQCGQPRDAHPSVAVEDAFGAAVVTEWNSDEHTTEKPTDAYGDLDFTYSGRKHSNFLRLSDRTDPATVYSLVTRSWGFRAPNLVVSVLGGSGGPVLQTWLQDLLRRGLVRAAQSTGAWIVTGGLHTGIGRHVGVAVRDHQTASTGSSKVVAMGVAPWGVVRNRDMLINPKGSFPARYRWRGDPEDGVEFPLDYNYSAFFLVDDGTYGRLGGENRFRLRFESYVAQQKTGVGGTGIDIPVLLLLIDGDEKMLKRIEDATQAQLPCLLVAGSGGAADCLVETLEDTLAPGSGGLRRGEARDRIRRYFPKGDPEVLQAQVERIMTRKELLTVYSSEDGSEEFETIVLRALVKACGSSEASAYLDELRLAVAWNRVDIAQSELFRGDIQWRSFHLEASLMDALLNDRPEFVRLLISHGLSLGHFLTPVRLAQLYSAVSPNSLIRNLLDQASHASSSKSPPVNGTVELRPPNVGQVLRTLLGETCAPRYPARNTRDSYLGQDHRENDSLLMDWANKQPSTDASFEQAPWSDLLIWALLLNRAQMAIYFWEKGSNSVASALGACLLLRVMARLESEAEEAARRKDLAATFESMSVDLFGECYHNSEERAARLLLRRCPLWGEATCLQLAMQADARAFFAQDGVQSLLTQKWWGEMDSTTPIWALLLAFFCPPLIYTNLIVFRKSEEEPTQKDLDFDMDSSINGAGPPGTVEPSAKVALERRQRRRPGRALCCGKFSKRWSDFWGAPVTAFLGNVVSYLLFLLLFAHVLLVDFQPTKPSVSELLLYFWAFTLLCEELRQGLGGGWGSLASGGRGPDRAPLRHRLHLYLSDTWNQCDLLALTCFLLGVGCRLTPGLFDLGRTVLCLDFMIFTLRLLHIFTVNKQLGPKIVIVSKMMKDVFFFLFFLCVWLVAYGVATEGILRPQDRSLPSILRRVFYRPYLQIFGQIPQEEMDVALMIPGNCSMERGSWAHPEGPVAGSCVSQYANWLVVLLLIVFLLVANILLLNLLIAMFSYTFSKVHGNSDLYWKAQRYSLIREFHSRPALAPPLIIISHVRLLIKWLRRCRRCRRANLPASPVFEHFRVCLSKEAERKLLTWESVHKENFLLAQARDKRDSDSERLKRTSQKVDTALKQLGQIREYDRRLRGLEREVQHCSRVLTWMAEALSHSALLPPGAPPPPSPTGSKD

`CCN(CCN)Cc1cccc(Cl)c1` [FP802] showed an Anisocytosis ([1]; 4 weeks) of 0%, an Atypical cells ([1]; 4 weeks) of 0 and a Band neutrophils ([1]; 4 weeks) of 0. The Basophils ([1]; 4 weeks) was 0%, the Eosinophils ([1]; 4 weeks) was 0.25 ± 0.50% and the Hematocrit ([1]; 4 weeks) was 50.25 ± 1.71%. For the same molecule, the Hemoglobin ([1]; 4 weeks) was 14.13 ± 0.68 g/dL, the Leukocytes ([1]; 4 weeks) was 3.53 ± 1.32 G/L and the Lymphocyte ([1]; 4 weeks) was 71.50 ± 5.57%. It also gave an MCH ([1]; 4 weeks) of 14.00 ± 0.12 pg, an MCHC ([1]; 4 weeks) of 28.50 ± 0.58 g/dL and an MCV ([1]; 4 weeks) of 49.75 ± 0.50 fL. The Monocyte ([1]; 4 weeks) was 4.25 ± 1.26%, the Reticulocyte ([1]; 4 weeks) was 5.10 ± 0.81% and the Segmented neutrophils ([1]; 4 weeks) was 22.50 ± 6.40%. For the same molecule, the Thrombocytes ([1]; 4 weeks) was 1506.00 ± 174.68 G/L, the “adverse effects on the hematology” value ([1]; 4 weeks) was “no adverse effects” and the Erythrocyte ([1]; 4 weeks from 15 weeks of age) was 10.08 ± 0.38 T/L. The “interaction of TRPM4 with the NMDAR subunit GluN2B (co-immunoprecipitation)” value (NMDAR/TRPM4 complex) was “disrupted”.
